The source of these data is patent publication US12384808B2, “Modulators of TNF-α activity” (Forward Therapeutics, Inc., priority 2022, dated 2025).

TNFα, sequence (P01375 77-233 limits assumed): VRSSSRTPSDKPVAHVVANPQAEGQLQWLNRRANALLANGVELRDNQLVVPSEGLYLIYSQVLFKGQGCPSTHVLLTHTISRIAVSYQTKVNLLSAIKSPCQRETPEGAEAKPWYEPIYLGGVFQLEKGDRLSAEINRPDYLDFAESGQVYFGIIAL

The experiment has as its target TNFα (Homo sapiens, UniProt P01375). Briefly: TNFα Induced HEK Blue Cellular Assay. The experiment is classed as cell-based. Conditions: HEK Blue TNFα reporter cells, TNFα 100 pg/ml, 24 hrs at 37° C., secreted alkaline phosphatase (QUANTI-Blue) read at 620 nm; read-out: IC50 value. As for the experimental part:
TNFα Induced HEK Blue Cellular Assay
Test articles were diluted in DMSO and serially diluted into 384 well assay plate (Corning 3765), at final concentrations ranging from […] to 0.5 nM. HEK Blue™ TNFα reporter cells were added at a final density of 10,000 cell per well in assay media [DMEM (Gibco, cat #21063-029), 10% fetal bovine serum (ExcelBio, cat #FND500), 1% Penicillin-Streptomycin (Solarbio, cat #P1400-100]. TNFα (R&D 210-TA-020/CF) was then added to the assay plate at a final concentration of 100 pg/ml. This plate was then incubated for 24 hrs at 37° C. and 5% CO2. Secreted alkaline phosphatase expression was then measured using QUANTI-Blue™ (Invivogen), according to manufacturer instructions and read on an Envision microplate reader at 620 nm.
Inhibition data for test compound over a range of concentration was plotted as percentage inhibition of the test compound (100%=maximum inhibition). IC50 values were determined after correcting for background [(sample read−mean of low control)/(mean of high control−mean of low control)] where by the low control is DMSO without stimulation and high control is DMSO with stimulation. The IC50 is defined as the concentration of test compound which produces 50% inhibition and was quantified using the 4 parameter logistic equation to fit the data.
In general, IC50 refers to the midpoint of a concentration-inhibition curve. With `CP(C)(=O)COc1ccc(-c2ccc3nc4n(c3c2)[C@@H]2C[C@H]4NC(=O)c3cccc(OC(F)F)c32)cn1` [Example 11, (1R,11R)-18-(difluoromethoxy)-5-{6-[(dimethylphosphoryl)methoxy]pyridin-3-yl}-2,9,12-triazapentacyclo[9.8.1.0^{2,10}.0^{3,8}.0^{14,19}]icosa-3(8),4,6,9,14(19),15,17-heptaen-13-one], the 50% inhibitory concentration (IC50) was 1000 to 10000 nM. The same measure for `CP(C)(=O)COc1ncc(-c2ccc3nc4n(c3c2)[C@@H]2C[C@H]4NC(=O)c3cccc(OC(F)F)c32)cn1` [Example 12, (1R,11R)-18-(difluoromethoxy)-5-(2-[(dimethylphosphoryl)methoxy]pyrimidin-5-yl)-2,9,12-triazapentacyclo[9.8.1.0^{2,10}.0^{3,8}.0^{14,19}]icosa-3(8),4,6,9,14(19),15,17-heptaen-13-one]: 1000 to 10000 nM; for `CN1C(=O)c2cccc(OC(F)F)c2[C@H]2C[C@@H]1c1nc3ccc(-c4ccc(P(C)(C)=O)cc4)cc3n12` [Example 13, (1R,11R)-18-(difluoromethoxy)-5-[4-(dimethylphosphoryl)phenyl]-12-methyl-2,9,12-triazapentacyclo[9.8.1.0^{2,10}.0^{3,8}.0^{14,19}]icosa-3(8),4,6,9,14(19),15,17-heptaen-13-one]: under 100 nM; for `CN1C(=O)c2cccc(OC(F)F)c2[C@H]2C[C@@H]1c1nc3ccc(-c4ccc(P(C)(C)=O)c(F)c4)cc3n12` [Example 14, (1R,11R)-18-(difluoromethoxy)-5-[4-(dimethylphosphoryl)-3-fluorophenyl]-12-methyl-2,9,12-triazapentacyclo[9.8.1.0^{2,10}.0^{3,8}.0^{14,19}]icosa-3(8),4,6,9,14(19),15,17-heptaen-13-one]: under 100 nM. Next, `[2H]C([2H])([2H])N1C(=O)c2cccc(OC(F)F)c2[C@H]2C[C@@H]1c1nc3ccc(-c4ccc(OCP(C)(C)=O)nc4)cc3n12` [Example 15, (7R,14R)-1-(difluoromethoxy)-11-(6-((dimethylphosphoryl)methoxy)pyridin-3-yl)-6-(methyl-d3)-6,7-dihydro-7,14-methanobenzo[f]benzo[4,5]imidazo[1,2-a][1,4]diazocin-5(14H)-one]: under 100 nM; `CN1C(=O)c2cccc(OC(F)F)c2[C@H]2C[C@@H]1c1nc3ccc(-c4cnc(NCP(C)(C)=O)c(F)c4)cc3n12` [Example 16, (1R,11R)-18-(difluoromethoxy)-5-(6-{[(dimethylphosphoryl)methyl]amino}-5-fluoropyridin-3-yl)-12-methyl-2,9,12-triazapentacyclo[9.8.1.0^{2,10}.0^{3,8}.0^{14,19}]icosa-3(8),4,6,9,14(19),15,17-heptaen-13-one]: under 100 nM. As for `[2H]C([2H])([2H])N1C(=O)c2cccc(OC(F)F)c2[C@H]2C[C@@H]1c1nc3ccc(-c4ccc(P(C)(C)=O)nc4)cc3n12` [Example 17, (7R,14R)-1-(difluoromethoxy)-11-(6-(dimethylphosphoryl)pyridin-3-yl)-6-(methyl-d3)-6,7-dihydro-7,14-methanobenzo[f]benzo[4,5]imidazo[1,2-a][1,4]diazocin-5(14H)-one], the IC50 is under 100 nM. On to `CN1C(=O)c2cccc(OC(F)F)c2[C@H]2C[C@@H]1c1nc3ccc(-c4ccc(OCP(C)(C)=O)c(F)c4)cc3n12` [Example 18, (1R,11R)-18-(difluoromethoxy)-5-{4-[(dimethylphosphoryl)methoxy]-3-fluorophenyl}-12-methyl-2,9,12-triazapentacyclo[9.8.1.0^{2,10}.0^{3,8}.0^{14,19}]icosa-3(8),4,6,9,14(19),15,17-heptaen-13-one], for which the IC50 was under 100 nM. Regarding `CCN1C(=O)c2cccc(OC(F)F)c2[C@H]2C[C@@H]1c1nc3ccc(-c4ccc(P(C)(C)=O)nc4)cc3n12` [Example 19, (1R,11R)-18-(difluoromethoxy)-5-[6-(dimethylphosphoryl)pyridin-3-yl]-12-ethyl-2,9,12-triazapentacyclo[9.8.1.0^{2,10}.0^{3,8}.0^{14,19}]icosa-3(8),4,6,9,14(19),15,17-heptaen-13-one], the IC50 was under 100 nM. Next, `CN1C(=O)c2cccc(OC(F)F)c2[C@H]2C[C@@H]1c1nc3ccc(-c4cnn(CP(C)(C)=O)c4)cc3n12` [Example 21, (1R,11R)-18-(difluoromethoxy)-5-{1-[(dimethylphosphoryl)methyl]pyrazol-4-yl}-12-methyl-2,9,12-triazapentacyclo[9.8.1.0^{2,10}.0^{3,8}.0^{14,19}]icosa-3(8),4,6,9,14(19),15,17-heptaen-13-one]: 100 to 1000 nM.

For `CN1C(=O)c2cccc(OC(F)F)c2[C@H]2C[C@@H]1c1nc3ccc(-c4ccc(CP(C)(C)=O)nc4)cc3n12` [Example 22, (1R,11R)-18-(difluoromethoxy)-5-{6-[(dimethylphosphoryl)methyl]pyridin-3-yl}-12-methyl-2,9,12-triazapentacyclo[9.8.1.0^{2,10}.0^{3,8}.0^{14,19}]icosa-3(8),4,6,9,14(19),15,17-heptaen-13-one], the concentration for half-maximal inhibition (IC50) was under 100 nM. Next, `CN1C(=O)c2cccc(OC(F)F)c2[C@H]2C[C@@H]1c1nc3ccc(-c4ccc(NCP(C)(C)=O)nc4)cc3n12` [Example 23, (1R,11R)-18-(difluoromethoxy)-5-(6-{[(dimethylphosphoryl)methyl]amino}pyridin-3-yl)-12-methyl-2,9,12-triazapentacyclo[9.8.1.0^{2,10}.0^{3,8}.0^{14,19}]icosa-3(8),4,6,9,14(19),15,17-heptaen-13-one]: under 100 nM; `[2H]C([2H])([2H])N1C(=O)c2cccc(OC(F)F)c2[C@H]2C[C@@H]1c1nc3ccc(-c4ccc(P(C)(C)=O)c(F)c4)cc3n12` [Example 24, (7R,14R)-1-(difluoromethoxy)-11-(4-(dimethylphosphoryl)-3-fluorophenyl)-6-(methyl-d3)-6,7-dihydro-7,14-methanobenzo[f]benzo[4,5]imidazo[1,2-a][1,4]diazocin-5(14H)-one]: under 100 nM.

As to `CN1C(=O)c2cccc(OC(F)F)c2[C@H]2C[C@@H]1c1nc3ccc(-c4cnc(OCP(C)(C)=O)s4)cc3n12` [Example 25, (1R,11R)-18-(difluoromethoxy)-5-{2-[(dimethylphosphoryl)methoxy]-1,3-thiazol-5-yl}-12-methyl-2,9,12-triazapentacyclo[9.8.1.0^{2,10}.0^{3,8}.0^{14,19}]icosa-3(8),4,6,9,14(19),15,17-heptaen-13-one], the IC50 was under 100 nM. Next, `CN1C(=O)c2cccc(OC(F)F)c2[C@H]2C[C@@H]1c1nc3ccc(-c4ccc(P(C)(C)=O)cc4Cl)cc3n12` [Example 27, (1R,11R)-5-[2-chloro-4-(dimethylphosphoryl)phenyl]-18-(difluoromethoxy)-12-methyl-2,9,12-triazapentacyclo[9.8.1.0^{2,10}.0^{3,8}.0^{14,19}]icosa-3(8),4,6,9,14(19),15,17-heptaen-13-one]: under 100 nM. With `CN1C(=O)c2cccc(OC(F)F)c2[C@H]2C[C@@H]1c1nc3ccc(-c4ccc(P(C)(C)=O)cc4F)cc3n12` [Example 28, (1R,11R)-18-(difluoromethoxy)-5-[4-(dimethylphosphoryl)-2-fluorophenyl]-12-methyl-2,9,12-triazapentacyclo[9.8.1.0^{2,10}.0^{3,8}.0^{14,19}]icosa-3(8),4,6,9,14(19),15,17-heptaen-13-one], the IC50 was under 100 nM. Next, `Cc1cc(P(C)(C)=O)ccc1-c1ccc2nc3n(c2c1)[C@@H]1C[C@H]3N(C)C(=O)c2cccc(OC(F)F)c21` [Example 29, (1R,11R)-18-(difluoromethoxy)-5-[4-(dimethylphosphoryl)-2-methylphenyl]-12-methyl-2,9,12-triazapentacyclo[9.8.1.0^{2,10}.0^{3,8}.0^{14,19}]icosa-3(8),4,6,9,14(19),15,17-heptaen-13-one]: under 100 nM; `CN(CP(C)(C)=O)c1ccc(-c2ccc3nc4n(c3c2)[C@@H]2C[C@H]4N(C)C(=O)c3cccc(OC(F)F)c32)cn1` [Example 30, (1R,11R)-18-(difluoromethoxy)-5-(6-{[(dimethylphosphoryl)methyl](methyl)amino}pyridin-3-yl)-12-methyl-2,9,12-triazapentacyclo[9.8.1.0^{2,10}.0^{3,8}.0^{14,19}]icosa-3(8),4,6,9,14(19),15,17-heptaen-13-one]: under 100 nM. Next, `CP(C)(=O)c1ccc(-c2ccc3nc4n(c3c2)[C@@H]2C[C@H]4NC(=O)c3cccc(OC(F)F)c32)c(F)c1` [Example 31, (1R,11R)-18-(difluoromethoxy)-5-[4-(dimethylphosphoryl)-2-fluorophenyl]-2,9,12-triazapentacyclo[9.8.1.0^{2,10}.0^{3,8}.0^{14,19}]icosa-3(8),4,6,9,14(19),15,17-heptaen-13-one]: under 100 nM. With `Cc1cc(P(C)(C)=O)ccc1-c1ccc2nc3n(c2c1)[C@@H]1C[C@H]3NC(=O)c2cccc(OC(F)F)c21` [Example 32, (1R,11R)-18-(difluoromethoxy)-5-[4-(dimethylphosphoryl)-2-methylphenyl]-2,9,12-triazapentacyclo[9.8.1.0^{2,10}.0^{3,8}.0^{14,19}]icosa-3(8),4,6,9,14(19),15,17-heptaen-13-one], the IC50 was under 100 nM.
